The text below walks through data of publication PMC4326127, “Collagen Inhibitory Peptide R1R2 Mediates Vascular Remodeling by Decreasing Inflammation and Smooth Muscle Cell Activation” (PLoS ONE, 2015).

In one experiment the test system is FN. Kind of experiment: IHC for FN in ligated carotid artery. It counts as in vivo, FVB/NJ (FVB) mice. The conditions noted are these: for FN IHC intensity in intima-media area: mean ± SEM. On the procedure:
(§1) Animals were anesthetized with isoflurane inhalation. The left common carotid artery was exposed, dissected free from the surrounding connective tissue and completely ligated with 6-0 silk suture just proximal to the carotid bifurcation. […] 4–10 mice were included in each experimental group.
(§2) Paraffin sections selected from the first mm of the carotid artery in each group were used for immunohistochemistry (IHC). […] Sections were then incubated with appropriate biotinylated secondary antibodies followed by avidin-biotin immunoperoxidase system (Vector Laboratories, Burlingame, CA). Liquid DAB Substrate Chromogen system (Dako, Carpinteria, CA) was used for detection.
(§3) Quantitative IHC analysis was performed on digital images captured with a 20x objective by using Image-Pro Plus software. Data from 3–6 mice for each group were averaged, and the average values ± SEM were shown. For FN, collagen type I, SM-MHC and SM α-actin, color digital images were transformed into gray scale, and the sum of the optical densities from the intima+media area in each section was determined. […] The percent of positive cells is reported as the proliferation index. […] The intima+media region was traced manually. The percent of positively stained area in intima+media to the total traced area was assessed.
(§4) For in vivo experiments, the data are shown as the mean ± SEM. For in vitro experiments, the data shown are the means ± SD of a representative experiment, at least 3 independent experiments were performed. One-way ANOVA with post-hoc testing were used for data analysis with GraphPad Prism software (GraphPad, San Diego, CA). If normality test failed, nonparametric Kruskal-Wallis test followed by Dunn's post-hoc test were used. P > 0.05 was not considered significant.

Another experiment relates to collagen-FN binding. The conditions noted are these: in vitro; ref [29],[30],[33]; cited from earlier work. An excerpt: (§5) In order to assess whether inhibiting collagen type I deposition reduces vascular remodeling in an in vivo mouse model, we used the collagen inhibitory peptide R1R2 for this study. The R1R2 peptide is derived from two repeat domains of the bacterial adhesin SFS, and is highly homologous to collagen. […] It is likely that R1R2 blocks collagen type I fibril formation around cells by binding to the collagen-binding domain of FN. To characterize the effects of our synth ...

Another experiment relates to smooth muscle cell. Particulars: in vitro; ref [29],[30],[33]; cited from earlier work.
Source text: as §5

In a further experiment the test system is collagen type I. Particulars: in vitro; ref [29],[30],[33]; cited from earlier work.
Source text: as §5

The subject of the next experiment is A7r5 SMCs. Description: SMC migration, scrape wound assay. The experiment is classed as cell-based. On the procedure: (§6) Human umbilical vein endothelial cells (HUVECs) and A7r5 SMCs were provided by Resource Center (SB3, NSC 100-2325-B-080-001), National Research Program for Biopharmaceuticals (Hsinchu, Taiwan). HUVECs were maintained in M199 (Life Technologies, Carlsbad, CA) with 25U/ml heparin (Sigma-Aldrich, St. Louis, MO), 10% fetal bovine serum (FBS) and endothelial cell growth supplement (ECGS; Millipore, Billerica, MA). A7r5 SMCs were grown in Dulbecco’s Modified Eagle’s Medium (DMEM) containing high glucose, supplemented with 10% fetal bovine serum. Human U937 cells were grown in RPMI1640 with 10% FBS.
A scrape wound assay was used to assess the effect of R1R2 and scrambled peptides on SMC migration as described. Briefly, A7r5 SMCs were grown until 90% confluent, followed by serum starvation and treatment with R1R2 and scrambled peptides for 36 hours. Several scrape wounds were then performed across the dish with a sterile yellow pipet tip. We initiated the experiment with treatment of cells with 10 ng/ml PDGF-BB. Photographs of the wound area were taken immediately after PDGF-BB addition (0 hour) and 30 hours postwounding with an Olympus CKX-41 microscope connected to a camera. At least three photographs were taken per group at each time point. Wound areas were determined using Image-Pro Software (Media Cybernetics, MD). Measurement of migration was determined by subtracting the cell-free area 30 hours after PDGF-BB addition from the cell-free area in the beginning of scrape wounds.
For in vivo experiments, the data are shown as the mean ± SEM. For in vitro experiments, the data shown are the means ± SD of a representative experiment, at least 3 independent experiments were performed. […]
Fig 6 R1R2 reduces SMC proliferation and migration. […] Cells were counted at the indicated time in the figure (n = 5). […] (C) Quantitation of SMC migration in the scratch wound healing assay was performed by subtracting the cell-free area 30 hours after PDGF-BB stimulation from the cell-free area in the beginning (n = 5). * indicates p<0.05 and ** p< 0.01.

The test system of another experiment is HUVECs. Kind of experiment: HUVEC proliferation assay. Particulars: at the start of the adhesion assay, versus control peptide; data not shown; in words. It counts as cell-based, human. Here is the method: as §6
A7r5 cells and HUVECs were growth-arrested and then stimulated with 10% FBS or 10 ng/ml TNF-αovernight after serum starvation as indicated in the figure legend. Briefly, trypan blue-excluding cells were counted with a hemocytometer, and data were analyzed using GraphPad Prism Software (San Diego, CA) as in previous studies. A second observer performed a similar analysis to verify the initial findings.

The next experiment concerns CD45 (+) leukocytes. Description: CD45 IHC, leukocyte infiltration in carotid intima-media. It counts as in vivo, FVB/NJ (FVB) mice. Here is the method: as §1, §2, §3, §4
A further experiment deals with VCAM-1. Kind of experiment: VCAM-1 IHC in ligated carotid artery. The experiment is classed as in vivo, FVB/NJ (FVB) mice. The conditions noted are these: 7 days after ligation; percent of positively stained area; mean ± SEM; R1R2 n = 7, control peptide n = 9. On the procedure: as §1, §2, §3
For in vivo experiments, the data are shown as the mean ± SEM. […]

The subject of a further experiment is U937 cells / HUVECs. Kind of experiment: Monocyte U937 adhesion to HUVECs. It counts as cell-based, human. Particulars: HUVECs treated with 10 ng/ml TNF-α; calcein-AM U937 5x10^5 cells/well, 30 minutes at 37°C; fluorescence 485/535; mean ± SD. On the procedure:
as §4

For the sequence “GLNGENQKEPEQGERGEAGPPLSGLSGNNQGRPSLPGLNGENQKEPEQGERGEAGPP [R1R2]”, the “effect on FN intensity” value in the experiment with FN (7 and 14 days after ligation, R1R2 vs scrambled peptide, in words) is “no significant decrease of FN intensity”. Further, the “FN IHC intensity in intima-media area” value in the experiment with FN (7 days after ligation, R1R2 n = 6, scrambled n = 6) turned out to be 0.153 ± 0.012; in the experiment on FN (14 days after ligation, R1R2 n = 7, scrambled n = 7), 0.309 ± 0.005. In addition, the “effect on collagen-FN binding” value with collagen-FN binding was “known to inhibit collagen-FN binding”. Besides, in the experiment on smooth muscle cell, the “effect on smooth muscle cell migration” value was “known to inhibit collagen-FN binding, collagen type I deposition, and smooth muscle cell migration in vitro”. Also, in the experiment with collagen type I, the “effect on collagen type I deposition” value is “known to inhibit collagen-FN binding, collagen type I deposition”. The “effect on SMC migration (wound healing images)” value with A7r5 SMCs (30 hours post PDGF-stimulation, versus scrambled peptide, in words) is “cells migrated more slowly”. Also, the “SMC migration (cell-free area at 0 h minus cell-free area at 30 hours)” value in the experiment on A7r5 SMCs (A7r5 SMCs, 36 hours peptide pretreatment, 10 ng/ml PDGF-BB, 30 hours, mean ± SD, n = 3) worked out at 130149 ± 53295. Also, in the experiment on HUVECs, the “effect on HUVEC cell number” value is reported as “No significant decrease”. Moreover, the “CD45 (+) area in intima-media” value in the experiment with CD45 (+) leukocytes (7 days after ligation, percent of positively stained area, mean ± SEM, R1R2 n = 5, scrambled n = 6) is recorded as 0.094 ± 0.035%. Besides, in the experiment on CD45 (+) leukocytes (carotid artery, periadventitial pluronic gel), the “reduction of inflammatory cell infiltration into the vessel” value was roughly 78%. In the experiment on VCAM-1, the “VCAM-1 (+) area in intima-media” value was found to be 10.36 ± 1.802%. Further, in the experiment on U937 cells / HUVECs, the “U937 adhesion to HUVECs” value was 197697 ± 34184 cells per cm^2.
